Each structure is given as a SMILES string. Like-named read-outs stand apart in the source and are kept apart here.

The target of one assay is T1, wild-type p38δ (Homo sapiens, UniProt O15264).
T1 construct: expressed in transfected cells; host or cells: HeLa
T1 sequence (O15264 1-365): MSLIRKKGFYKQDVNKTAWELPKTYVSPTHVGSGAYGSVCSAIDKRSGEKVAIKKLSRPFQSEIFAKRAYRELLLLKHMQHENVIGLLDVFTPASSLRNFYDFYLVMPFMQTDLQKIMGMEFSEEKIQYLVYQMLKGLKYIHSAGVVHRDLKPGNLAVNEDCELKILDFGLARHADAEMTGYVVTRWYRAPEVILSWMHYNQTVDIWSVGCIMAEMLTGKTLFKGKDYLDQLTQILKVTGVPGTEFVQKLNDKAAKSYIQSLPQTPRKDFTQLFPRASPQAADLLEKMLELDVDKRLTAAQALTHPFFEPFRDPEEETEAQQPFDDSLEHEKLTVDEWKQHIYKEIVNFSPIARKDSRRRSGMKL
Put plainly: Degradation of transfected wild-type p38δ in HeLa cells. It counts as cell-based. The settings on record: 24 h. The method, then:
Mutant p38δ was generated by QuikChange Lightning site-directed mutagenesis kit (Agilent). Transfections were carried out using Lipofectamine 2000 reagent (Invitrogen) in HeLa cells seeded at 3 × 10^5 cells per six well. One microgram of FLAG-containing pcDNA5-p38delta-WT or pcDNA5-p38delta-K220ET221E was used per transfection. Opti-MEM media were changed after 6 h to DMEM (1 × ), at which point the indicated compounds were added for 24 h before harvesting.

Another assay concerns the target T2, p38α (Homo sapiens, UniProt Q16539).
T2 construct: SJFα PROTAC (13-atom linker, amide attachment) selectively degrades p38α; endogenous in cells; host or cells: MDA-MB-231
Put plainly: PROTAC-induced p38α degradation, western blot in MDA-MB-231 cells. The format is cell-based. As for the experimental part:
MDA-MB-231 and HeLa cells were obtained from the American Type Culture Collection (ATCC), cultured in RPMI-1640 medium (1 × ) and Dulbecco’s modified Eagle’s medium (DMEM; 1 × ), respectively, containing 10% fetal bovine serum and 1% penicillin–streptomycin and grown in a humidified incubator at 37 °C and 5% CO2.
(§1) […] once with ice-cold PBS (1 × ), followed by lysis in buffer containing 25 mM Tris [pH 7.5], 0.25% sodium deoxycholate, 1% Triton X-100, supplemented with 1X protease inhibitor cocktail (Roche), and phosphatase inhibitors (10 mM NaF, 1 mM Na3VO4, and 20 mM β-glycerophosphate), unless otherwise noted. Lysates were spun at 14,000 × g for 10 min at 4 °C and supernatant was evaluated for protein content using a Pierce BCA Protein Assay (ThermoFisher Scientific). In all experiments, 25–50 μg of protein was loaded onto 10% SDS-PAGE gels or 4–20% Criterion TGX precast gradient gels (Bio-Rad), transferred to nitrocellulose membranes, and probed with the specified antibodies overnight at 4 °C in 1X TBS-Tween (Tris-buffered saline plus 0.02% Tween 20) containing 5% non-fat milk. Immunoblots were visualized using a Bio-Rad ChemiDoc imaging instrument and subsequently processed and quantified using the accompanying Bio-Rad ImageLab software. See Supplementary Figure 8 for uncropped scans of western blots shown in the main text figures.
Western blot data in Figs. 2, 6, and Supplementary Figures 2, 3 were quantified by using the band feature in Image Lab (Bio-Rad). The p38 values were normalized to the α-tubulin signal to account for differences in protein load, and PROTAC-treated normalized values were expressed as a % of the vehicle-treated (no PROTAC) value, which itself was defined as 100% p38 protein level. […] The sigmoidal fit established both the full extent of degradation, or Dmax at the bottom asymptote of the curve, as well as the DC50, which is the inflection point at which 50% of the total degradation observed was reached.
Background: In western blotting, separated proteins are transferred to a membrane and probed.

A further assay deals with T3, endogenous p38δ (Homo sapiens, UniProt O15264+P40337).
T3 construct: endogenous in cells; host or cells: MDA-MB-231 whole-cell lysate (p38δ); GST-VBC bait made in E. coli
The assay can be described thus: Ternary complex pull-down from MDA-MB-231 whole-cell lysate. The format is binding. As for the experimental part: Glutathione Sepharose 4B (Glutathione-conjugated beads in a slurry containing 20% ethanol) were washed twice with 1X wash buffer (50 mM HEPES pH 7.5, 150 mM NaCl, 1 mM DTT, 0.01% NP40, 5 mM MgCl2, 10% Glycerol) and then blocked for 1 h at room temperature with 10% bovine serum albumin (BSA) in wash buffer. The beads were then washed again three times with wash buffer and then purified GST-VBC (stable form of VHL complexed with EloB/EloC, described above) was immobilized for 1 h at 4 °C at 3.6 pmole µL^–1 of beads. The beads were then washed three times with wash buffer, resuspended, divided into two equal volumes, and p38α or p38δ protein was added. The bead:p38 mixture was then aliquoted to separate tubes and PROTAC was added at the indicated concentration (PROTACs were intermediately diluted in 10% DMSO and 0.25% CHAPS). This mixture was incubated at 4 °C for 2 h. The beads were washed three times with 10 column volumes of wash buffer and then eluted with SDS loading buffer at 75 °C for 10 min.
For experiments in which the input substrate is a WCL (Fig. 4b), the sample was prepared as follows. Five 150 mm dishes of confluent MDA-MB-231 cells were washed with 1X PBS, pH 7.4, and then dissociated using enzyme-free PBS-based cell dissociation buffer (ThermoFisher Scientific) for 10 min at 37 °C. […]

A further assay has as its system JNK1. Put plainly: JNK1 degradation, western blot in MDA-MB-231 cells. The format is cell-based, human. The settings on record: 0.025-2.5 µM. As for the experimental part: as §1
(§2) Supplementary Figure 4 cont.
(§3) Supplementary Figure 4. Characterization of M APK fam ily degradation selectivity (related to Figures 1-2). (a) p38 M APK fam ily m em bers (α, β, δ, γ) were aligned using the T-Coffee multiple sequence alignm ent server. […] Note: JNK1 and JNK2 are expressed as two alternatively-spliced form s. […]

The target of a further assay is T4, ERK1 (Homo sapiens, UniProt P27361).
T4 construct: endogenous in cells; host or cells: MDA-MB-231
Put plainly: ERK1 degradation, western blot in MDA-MB-231 cells. The format is cell-based. The settings on record: 0.025-2.5 µM. As for the experimental part: as §1, §2, §3

Where [1] appears, read: 0.025-5.0 µM survey, biological duplicates, ± one s.d., Supplementary Table 1.
Where [2] appears, read: 0.025-5.0 µM survey, ± one s.d., Supplementary Table 1, read-out: Dmax p38α (maximum percentage of degradation).

T2 sequence (Q16539 whole entry): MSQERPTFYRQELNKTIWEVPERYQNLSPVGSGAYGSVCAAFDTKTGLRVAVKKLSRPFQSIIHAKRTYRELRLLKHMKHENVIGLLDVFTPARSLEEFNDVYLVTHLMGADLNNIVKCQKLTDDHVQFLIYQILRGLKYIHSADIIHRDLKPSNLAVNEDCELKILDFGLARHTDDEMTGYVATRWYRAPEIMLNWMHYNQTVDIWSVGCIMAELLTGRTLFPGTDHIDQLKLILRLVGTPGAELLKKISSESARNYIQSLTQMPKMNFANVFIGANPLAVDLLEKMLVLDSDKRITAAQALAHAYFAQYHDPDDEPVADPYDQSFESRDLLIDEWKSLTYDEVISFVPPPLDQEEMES
T4 sequence (P27361 whole entry): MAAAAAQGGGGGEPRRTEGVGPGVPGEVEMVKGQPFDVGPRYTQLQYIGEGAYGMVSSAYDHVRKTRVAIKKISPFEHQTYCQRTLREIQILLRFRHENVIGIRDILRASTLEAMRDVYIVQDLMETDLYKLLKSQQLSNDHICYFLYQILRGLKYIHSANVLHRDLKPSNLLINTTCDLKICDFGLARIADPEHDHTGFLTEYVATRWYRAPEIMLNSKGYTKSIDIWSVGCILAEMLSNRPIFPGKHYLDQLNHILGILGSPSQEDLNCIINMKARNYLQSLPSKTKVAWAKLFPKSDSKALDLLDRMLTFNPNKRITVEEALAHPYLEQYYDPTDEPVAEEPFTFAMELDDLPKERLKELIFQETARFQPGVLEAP
T3 sequence (P40337 whole entry, one chain of several): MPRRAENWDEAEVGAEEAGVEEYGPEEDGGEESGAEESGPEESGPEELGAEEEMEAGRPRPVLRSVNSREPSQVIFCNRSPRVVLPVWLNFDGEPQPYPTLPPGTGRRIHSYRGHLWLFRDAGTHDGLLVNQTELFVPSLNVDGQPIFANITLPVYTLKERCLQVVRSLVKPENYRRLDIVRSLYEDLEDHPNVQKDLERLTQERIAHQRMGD
T3 sequence (Q15370 whole entry partner, one chain of several): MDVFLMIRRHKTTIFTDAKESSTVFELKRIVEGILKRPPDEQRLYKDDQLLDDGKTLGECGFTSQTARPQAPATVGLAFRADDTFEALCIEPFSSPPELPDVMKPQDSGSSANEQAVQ
T3 sequence (Q15369 whole entry partner, one chain of several): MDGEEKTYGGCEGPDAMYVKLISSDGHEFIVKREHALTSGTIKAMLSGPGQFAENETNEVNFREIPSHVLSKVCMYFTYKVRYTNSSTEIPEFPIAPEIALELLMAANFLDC

One may read the DC50 as the midpoint of the concentration-degradation curve. High values mean a less potent degrader, low ones a more potent degrader. As usually defined, the Dmax is the greatest extent of degradation seen. Consider `COc1cc2c(Oc3ccc(NC(=O)C4(C(=O)Nc5ccc(F)cc5)CC4)cc3F)ccnc2cc1OCCCCOCCCCOCC(=O)N[C@H](C(=O)N1C[C@H](O)C[C@H]1C(=O)NCc1ccc(-c2scnc2C)cc1)C(C)(C)C` [SJFα], for which the “degradation of wild-type p38δ” value at wild-type p38δ is reported as “not wild-type p38δ”. In addition, the “p38α downregulation after pre-treatment with 1 µM epoxomicin or 1 µM MLN4924” value on p38α (250 nM PROTAC, 6 h) is on record as “completely rescued”. The DC50 stood at 9.5 ± 1 nM at p38α (setting [1]) and 7.16 ± 1.03 nM on p38α (wider dose response 1 nM-100 µM, Supplementary Figure 3). In addition, the Dmax at p38α (setting [2]) was determined as 99.6 ± 1.1%; on p38α (wider dose response 1 nM-100 µM, Supplementary Figure 3, read-out: Dmax p38α), 97.4%. For the same compound, on p38α (up to 100 µM), the “hook effect in p38α degradation” value is reported as “no hook effect”. Also, the “enrichment of endogenous p38δ on GST-VBC bait” value at endogenous p38δ was “stable ternary complex formation was greatly reduced”. Moreover, in the assay on JNK1, the JNK1 degradation result is “neither PROTAC degrades”. Also, on ERK1, the ERK1 degradation entry was “neither PROTAC degrades”.
`COc1cc2c(Oc3ccc(NC(=O)C4(C(=O)Nc5ccc(F)cc5)CC4)cc3F)ccnc2cc1OCCOCCOCCOc1cc(-c2scnc2C)ccc1CNC(=O)[C@@H]1C[C@@H](O)CN1C(=O)[C@H](C(C)C)N1Cc2ccccc2C1=O` [SJFδ]: the “degradation of wild-type p38δ” value at wild-type p38δ is reported as “able to eliminate wild-type p38δ”. For the same compound, the “p38α degradation (in words)” value at p38α is recorded as “does not degrade”. At p38α (setting [1]), it took 45.9 ± 81.3 nM to reach half-maximal degradation (DC50). Besides, on p38α (setting [2]), the Dmax turned out to be 34.5 ± 10.1%. Also, on endogenous p38δ, the “enrichment of endogenous p38δ on GST-VBC bait” value is reported as “strongly enriches for endogenous p38δ”. Moreover, the JNK1 degradation result in the assay with JNK1 is recorded as “neither PROTAC degrades”. Besides, at ERK1, the ERK1 degradation entry is reported as “neither PROTAC degrades”.

(Values after paper PMC6328587 (Nature Communications, 2019).)
